The values that follow come from ChEMBL document CHEMBL1158216, “Globostellatic acids A-D, new cytotoxic isomalabaricane triterpenes from the marine sponge Stelletta globostellata” (J Nat Prod, 1996).

For this test, the system named is P388. Briefly: Cytotoxicity against mouse P388 cells. The test is classed as functional, cell-based.
In the case of `COC(/C=C/C(C)=C/C=C/C(C)=C1\C(=O)C[C@H]2[C@@]3(C)CC[C@@H](O)[C@](C)(C(=O)[O-])[C@@H]3CC[C@]12C)C(C)(C)O.[Na+]` (some centres undefined) [GLOBOSTELLATIC ACID D], the IC50 was found to be 0.1 µg/mL.

`COC(/C=C/C(C)=C/C=C/C(C)=C1\C(=O)C[C@H]2[C@@]3(C)CC[C@@H](OC(C)=O)[C@](C)(C(=O)[O-])[C@@H]3CC[C@]12C)C(C)(C)O.[Na+]` (some centres undefined) [GLOBOSTELLATIC ACID C] had an IC50 of 0.46 µg/mL.

In turn, `COC(/C=C/C(C)(C)O)/C(C)=C/C=C/C(C)=C1\C(=O)C[C@H]2[C@@]3(C)CC[C@@H](OC(C)=O)[C@](C)(C(=O)[O-])[C@@H]3CC[C@]12C.[Na+]` (some centres undefined) [GLOBOSTELLATIC ACID B] gave an IC50 of 0.1 µg/mL. `CC(=O)O[C@@H]1CC[C@@]2(C)[C@@H](CC[C@]3(C)/C(=C(\C)C(=O)/C=C/C(C)=C/C=C/C(C)(C)O)C(=O)C[C@@H]23)[C@@]1(C)C(=O)[O-].[Na+]` [GLOBOSTELLATIC ACID A] registered an IC50 of 0.1 µg/mL.
